Measured values as given in paper PMC11191095, “QSAR Reveals Decreased Lipophilicity of Polar Residues Determines the Selectivity of Antimicrobial Peptide Activity” (ACS Omega, 2024).
Where a SMILES comes first, the peptide text is derived from it.

How the values were obtained:
Test in all cases: microbe, parasite or virus in culture
[1] = system: E. coli LEC001; type: cell-based, Escherichia coli; conditions: E. coli LEC001 (R)
Summary of the method: (§1)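 Peptides 128→2 μg/mL, 2-fold series; inoculum ~5 × 10^5 CFU/mL from overnight culture (OD600 0.01, mixed 1:1). MHB non-cation-adjusted for bacteria, RPMI 1640 + 2% glucose for fungi. 37 °C, 20 h, OD600. MIC50/MIC90 at 50%/90% inhibition; n ≥ 3.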

[2] = system: E. coli NCTC 12923; type: cell-based, Escherichia coli; conditions: E. coli NCTC 12923 (S)
Summary of the method: as §1

[3] = system: P. aeruginosa NCTC 13437; type: cell-based, Pseudomonas aeruginosa; conditions: P. aeruginosa NCTC 13437 (R)
Summary of the method: as §1

[4] = system: A. baumannii ATCC 17978; type: cell-based, Acinetobacter baumannii; conditions: A. baumannii ATCC 17978 (S)
Summary of the method: as §1

[5] = system: A. baumannii AYE; type: cell-based, Acinetobacter baumannii; conditions: A. baumannii AYE (R)
Summary of the method: as §1

[6] = system: K. pneumoniae M6; type: cell-based, Klebsiella pneumoniae; conditions: K. pneumoniae M6 (S)
Summary of the method: as §1

[7] = system: K. pneumoniae NCTC 13368; type: cell-based, Klebsiella pneumoniae; conditions: K. pneumoniae NCTC 13368 (R)
Summary of the method: as §1

[8] = system: S. aureus (MRSA) 1199B; type: cell-based, Staphylococcus aureus; conditions: S. aureus (MRSA) 1199B (R)
Summary of the method: as §1

[9] = system: S. aureus (MRSA) NCTC 13616; type: cell-based, Staphylococcus aureus; conditions: S. aureus (MRSA) NCTC 13616 (R)
Summary of the method: as §1

[10] = system: S. aureus (MSSA) ATCC 9144; type: cell-based, Staphylococcus aureus; conditions: S. aureus (MSSA) ATCC 9144 (S)
Summary of the method: as §1

[11] = system: C. auris TDG 1912; type: cell-based, Candida auris; conditions: C. auris TDG 1912
Summary of the method: as §1

[12] = system: C. albicans NCPF 3281; type: cell-based; conditions: C. albicans NCPF 3281
Summary of the method: as §1

[13] = system: C. glabrata NCPF 8018; type: cell-based; conditions: C. glabrata NCPF 8018
Summary of the method: as §1

[14] = system: C. krusei NCPF 3876; type: cell-based; conditions: C. krusei NCPF 3876
Summary of the method: as §1

[15] = system: C. parapsilosis NCPF 3209; type: cell-based; conditions: C. parapsilosis NCPF 3209
Summary of the method: as §1

[16] = system: C. tropicalis NCPF 8760; type: cell-based; conditions: C. tropicalis NCPF 8760
Summary of the method: as §1

[17] = MHB, 37 °C, 20 h, OD600, min. three biological repeats
[18] = MHB, ~5×10^5 CFU/mL, 37 °C, 20 h, OD600, min. three biological repeats
[19] = 50% growth inhibition, RPMI 1640 + 2% glucose, 37 °C, 20 h, OD600
[20] = 90% growth inhibition, RPMI 1640 + 2% glucose, 37 °C, 20 h, OD600
[21] = 50% growth inhibition, RPMI 1640 + 2% glucose, 37 °C, 20 h
[22] = 90% growth inhibition, RPMI 1640 + 2% glucose, 37 °C, 20 h

## CC[C@H](C)[C@H](NC(=O)[C@@H](N)Cc1c[nH]c2ccccc12)C(=O)N[C@@H](CCCCN)C(=O)N[C@@H](CO)C(=O)N[C@H](C(=O)N[C@@H](C)C(=O)N[C@@H](CCCCN)C(=O)N[C@@H](CCCCN)C(N)=O)[C@@H](C)O [Opis8a] (H-WIKSTAKK-NH2)
[1]; [17]
  Modal MIC: > 128 µg/mL
[1]; shown in µM
  Modal MIC: > 133.2 µM
[2]; [18]
  Modal MIC: > 128 µg/mL
[2]; shown in µM
  Modal MIC: > 133.2 µM
[3]; [17]
  Modal MIC: > 128 µg/mL
[3]; shown in µM
  Modal MIC: > 133.2 µM
[4]; [17]
  Modal MIC: > 128 µg/mL
[4]; shown in µM
  Modal MIC: > 133.2 µM
[5]; [17]
  Modal MIC: > 128 µg/mL
[5]; shown in µM
  Modal MIC: > 133.2 µM
[6]; [17]
  Modal MIC: > 128 µg/mL
[6]; shown in µM
  Modal MIC: > 133.2 µM
[7]; [17]
  Modal MIC: > 128 µg/mL
[7]; shown in µM
  Modal MIC: > 133.2 µM
[8]; [17]
  Modal MIC: > 128 µg/mL
[8]; shown in µM
  Modal MIC: > 133.2 µM
[9]; [17]
  Modal MIC: > 128 µg/mL
[9]; shown in µM
  Modal MIC: > 133.2 µM
[10]; [17]
  Modal MIC: > 128 µg/mL
[10]; shown in µM
  Modal MIC: > 133.2 µM
[11]; [19]
  Modal MIC50: > 128 µg/mL
[11]; [20]
  Modal MIC90: > 128 µg/mL
[11]; shown in µM
  Modal MIC50: > 133.2 µM
  Modal MIC90: > 133.2 µM
[12]; [21]
  Modal MIC50: > 128 µg/mL
[12]; [22]
  Modal MIC90: > 128 µg/mL
[12]; shown in µM
  Modal MIC50: > 133.2 µM
  Modal MIC90: > 133.2 µM
[13]; [21]
  Modal MIC50: > 128 µg/mL
[13]; [22]
  Modal MIC90: > 128 µg/mL
[13]; shown in µM
  Modal MIC50: > 133.2 µM
  Modal MIC90: > 133.2 µM
[14]; [21]
  Modal MIC50: > 128 µg/mL
[14]; [22]
  Modal MIC90: > 128 µg/mL
[14]; shown in µM
  Modal MIC50: > 133.2 µM
  Modal MIC90: > 133.2 µM
[15]; [21]
  Modal MIC50: > 128 µg/mL
[15]; [22]
  Modal MIC90: > 128 µg/mL
[15]; shown in µM
  Modal MIC50: > 133.2 µM
  Modal MIC90: > 133.2 µM
[16]; [21]
  Modal MIC50: > 128 µg/mL
[16]; [22]
  Modal MIC90: > 128 µg/mL
[16]; shown in µM
  Modal MIC50: > 133.2 µM
  Modal MIC90: > 133.2 µM

## CC[C@H](C)[C@H](N)C(=O)N[C@@H](CCCNC(=N)N)C(=O)NCC(=O)N[C@@H](Cc1ccc(O)cc1)C(=O)N[C@@H](CCCCN)C(=O)NCC(=O)NCC(=O)N[C@@H](Cc1ccc(O)cc1)C(=O)N[C@@H](CS)C(=O)N[C@@H](CCCCN)C(N)=O [Os(3-12)a] (H-IRGYKGGYCK-NH2)
[1]; [17]
  Modal MIC: > 128 µg/mL
[1]; shown in µM
  Modal MIC: > 112 µM
[2]; [18]
  Modal MIC: > 128 µg/mL
[2]; shown in µM
  Modal MIC: > 112 µM
[3]; [17]
  Modal MIC: > 128 µg/mL
[3]; shown in µM
  Modal MIC: > 112 µM
[4]; [17]
  Modal MIC: > 128 µg/mL
[4]; shown in µM
  Modal MIC: > 112 µM
[5]; [17]
  Modal MIC: > 128 µg/mL
[5]; shown in µM
  Modal MIC: > 112 µM
[6]; [17]
  Modal MIC: > 128 µg/mL
[6]; shown in µM
  Modal MIC: > 112 µM
[7]; [17]
  Modal MIC: > 128 µg/mL
[7]; shown in µM
  Modal MIC: > 112 µM
[8]; [17]
  Modal MIC: > 128 µg/mL
[8]; shown in µM
  Modal MIC: > 112 µM
[9]; [17]
  Modal MIC: > 128 µg/mL
[9]; shown in µM
  Modal MIC: > 112 µM
[10]; [17]
  Modal MIC: > 128 µg/mL
[10]; shown in µM
  Modal MIC: > 112 µM
[11]; [19]
  Modal MIC50: > 128 µg/mL
[11]; [20]
  Modal MIC90: > 128 µg/mL
[11]; shown in µM
  Modal MIC50: > 112 µM
  Modal MIC90: > 112 µM
[12]; [21]
  Modal MIC50: > 128 µg/mL
[12]; [22]
  Modal MIC90: > 128 µg/mL
[12]; shown in µM
  Modal MIC50: > 112 µM
  Modal MIC90: > 112 µM
[13]; [21]
  Modal MIC50: > 128 µg/mL
[13]; [22]
  Modal MIC90: > 128 µg/mL
[13]; shown in µM
  Modal MIC50: > 112 µM
  Modal MIC90: > 112 µM
[14]; [21]
  Modal MIC50: > 128 µg/mL
[14]; [22]
  Modal MIC90: > 128 µg/mL
[14]; shown in µM
  Modal MIC50: > 112 µM
  Modal MIC90: > 112 µM
[15]; [21]
  Modal MIC50: > 128 µg/mL
[15]; [22]
  Modal MIC90: > 128 µg/mL
[15]; shown in µM
  Modal MIC50: > 112 µM
  Modal MIC90: > 112 µM
[16]; [21]
  Modal MIC50: > 128 µg/mL
[16]; [22]
  Modal MIC90: > 128 µg/mL
[16]; shown in µM
  Modal MIC50: > 112 µM
  Modal MIC90: > 112 µM
